≈ marks a conversion by molar mass, not a printed value. Where “and” joins values, the source holds several entries; their conditions need not be identical. Identical values can stand only once. Like-named read-outs stand apart in the source and are kept apart here.
How the values were obtained:
[1] = test system: Enterococcus (6 strains); experiment: MIC by agar dilution, Enterococcus; format: cell-based; details: 35° C., 16 hours
Procedure: (§1) Test method: minimal inhibitory concentration (MIC) of series of compounds of the present invention and the positive control drug linezo lid against the tested strains was determined using agar dilution method (Antimicrob. Agents and Chemother., 40, 1996. 720-726). The bacteria was inoculated on the surface of agar plates with different drug concentrations using a multi-point inoculation instrument (Denley A400). Inoculum of each point was about 10^6 CFU/mL, and inoculation was performed at 35° C. for 16 hours to get observation. The minimal concentration of a drug contained in the plate medium without bacteria growth was considered as the minimal inhibitory concentration (MIC value) of the drug against bacteria.
(§2) Tested strains: the tested strains were clinically isolated pathogenic bacteria collected in the Nanjing area, and re-identified by conventional methods before use. 31 pathogenic bacteria are selected, and strain serial numbers were as following: six enterococci; five Staphylococcus aureus sensitive strains; five Staphylococcus epidermidis sensitive strains; six Staphylococcus aureus drug-resistant strains; five Staphylococcus epidermidis drug-resistant strains; four pneumococcus drug-resistant strains.
(§3) At first, tested compounds were added into 2 mL of DMSO, which could facilitate full dissolution, and then sterile double distilled water was added to a desired concentration; 20 mL MH medium in heat-melted to liquid was added to each of plates with drug solution, so that the final drug concentrations in the plates were 64, 32, 16, 8, 4, 2, 1, 0.5, 0.25, 0.125, 0.0625 and 0.031 μg/mL.
(§4) The positive control group was LZ (linezolid, trade name Zyvox, which was approved by the FDA in 2000 to be first launched in the United States and is the first and only oxazolidinone antibacterial drug permitted to be used in clinical practice at present).

[2] = test system: Staphylococcus aureus sensitive strain (5 strains); experiment: MIC by agar dilution, Staphylococcus aureus sensitive strains; format: cell-based; details: 35° C., 16 hours
Procedure: as §1, §2, §3, §4

[3] = test system: Staphylococcus epidermidis sensitive strain (5 strains); experiment: MIC by agar dilution, Staphylococcus epidermidis sensitive strains; format: cell-based; parameters: unit not given here; details: 35° C., 16 hours
Procedure: as §1, §2, §3, §4

[4] = test system: Staphylococcus aureus drug-resistant strain (6 strains); experiment: MIC by agar dilution, Staphylococcus aureus drug-resistant strains; format: cell-based; parameters: unit not given here; details: 35° C., 16 hours
Procedure: as §1, §2, §3, §4

[5] = test system: Staphylococcus epidermidis drug-resistant strain (5 strains); experiment: MIC by agar dilution, Staphylococcus epidermidis drug-resistant strains; format: cell-based; details: 35° C., 16 hours
Procedure: as §1, §2, §3, §4

[6] = test system: Pneumococcus drug-resistant strain (4 strains); experiment: MIC by agar dilution, pneumococcus drug-resistant strains; format: cell-based; parameters: unit not given here; details: 35° C., 16 hours
Procedure: as §1, §2, §3, §4

[7] = test system: methicillin-resistant Staphylococcus aureus (MRSA); experiment: In vivo antibacterial activity in mice infected with MRSA; parameters: species or system Kunming mice; details: for ED50: Staphylococcus aureus
Description: Experimental strains: the bacteria used for infecting animals was methicillin-resistant Staphylococcus aureus (MRSA), which was clinically isolated pathogenic bacteria collected in Nanjing area in 2009, and re-identified by the API method.
Experimental animals: Healthy Kunming mice of SPF grade and weighing 18-22 g were chosen, and male and female were 50% each, and they were supplied by animal breeding office of Pharmacology Laboratory, China Pharmaceutical University.
Test method of infection and treatment: The experimental animals were evenly grouped by sex and weight, each group had 10 mice, including 50% of male and female, respectively. Intraperitoneal injection of bacteria solution was performed among animals at 0.5 mL/animal. One hour after infection, the tested drug solution (Compound 7 of the present invention and the positive control drug LZ) of different concentrations were given to each animal by oral gavage or intravenous injection at 0.5 mL/20 g, respectively. For mice receiving oral gavage, another gavage was given 4 hours after the first dose, observation was performed after administration, and death was recorded. An infected control group was set up for the same group, and the number of the deaths within seven days after infection was recorded.
Experimental data processing: median effective dose ED50 and 95% confidence limits were calculated by Bliss for in vivo protective effect of each tested drug among mice infected with tested strain.

[8] = In vivo pharmacokinetic trial in rat (gavage and intravenous injection); parameters: species or system SD male rats
Procedure: The tested compound was Compound 7, using two administration routes (gavage and intravenous injection).
(§5) Gavage: four healthy SD male rats weighing 200-250 g were given a dose of 15 mg/kg, with an administered volume of 10 mL/kg. And the compound was prepared as 0.5% CMC—Na. The animals were fasted for 12 hours and had free access to water before administration, 0.3 mL of venous blood was sampled through retrobulbar venous plexus at 0.25, 0.5, 1, 0, 2.0, 3.0, 4.0, 5.0, 7.0, 9.0, 24, and 48 hours after administration and collected in heparinized test tubes, which is subjected to centrifugation at 3500 rpm for 10 min to separate the plasma, and stored at −20° C. for testing.
as §5, with “Intravenous injection: two” for “Gavage: four”, “using DMSO, Tween 80 and deionized water.” for “as 0.5% CMC—Na.”, “5 min, 15 min,” for “0.25,”, “1.0,” for “1, 0,”
Concentration of Compound 7 in plasma was determined using liquid chromatography-tandem mass spectrometry.

[9] = gavage 15 mg/kg, individual animals No. 1-4, 15 mg/kg
[10] = gavage 15 mg/kg, mean of 4 animals
[11] = intravenous injection 15 mg/kg, individual animals No. 5-6, 15 mg/kg
[12] = intravenous injection 15 mg/kg, mean of 2 animals
[13] = male, SD, plasma, iv, 15 mg/kg, intravenous injection 15 mg/kg, individual animals No. 5-6
[14] = male, SD, plasma, po, 15 mg/kg, gavage 15 mg/kg, individual animals No. 1-4
[15] = male, SD, plasma, po, 15 mg/kg, gavage 15 mg/kg, mean of 4 animals

Cn1nnnc1-c1ccc(-c2ccc3c(c2)OC[C@H]2[C@@H](Cn4ccnn4)OC(=O)N32)cn1 [Compound 51, (3R,3aS)-3-((1H-1,2,3-triazol-1-yl)methyl)-7-(6-(1-methyl-1H-tetrazol-5-yl)pyridin-3-yl)-3a,4-dihydrobenzo[b]oxazole[3,4-d][1,4]oxazine-1(3H)-one]
MIC, Enterococcus (6 strains) [1]: 500 µM (≈ 216 µg/mL) | MIC, Staphylococcs aureus sensitive strain (5 strains) [2]: 250 µM (≈ 108 µg/mL) | MIC, Staphylococcus epidremidis sensitive strain (5 strains) [3]: 0.5 | MIC, Staphylococcus aureus drug-resistant strain (6 strains) [4]: 0.5 | MIC, Staphylococcus epidermidis drug-resistant strain (5 strains) [5]: 500 µM (≈ 216 µg/mL) | MIC, Pneumococcus drug-resistant strain (4 strains) [6]: 0.5

CC(=O)NC[C@H]1CN(c2ccc(N3CCOCC3)c(F)c2)C(=O)O1 [LZ, linezolid, reference compound]
ED50 ([7]; ip, mice infected i.p. with MRSA, p.o (gavage 1 h after infection and again 4 h after first dose), deaths within seven days, read-out: ED50): 8.5 mg/kg | ED50 ([7]; mice infected i.p. with MRSA, iv 1 h after infection, deaths within seven days, read-out: ED50): 8.51 mg/kg

N(((3S,3aS)-7-(6-(4-methyl piperazin-1-yl)pyridin-3-yl)-1-oxo-1,3,3a,4-tetrahydrobenzo[b]oxazole-[3,4-d][1,4]oxazin-3-yl)methyl)acetamide [Compound 62]
MIC, Enterococcus (6 strains) [1]: 500 µM | MIC, Staphylococcs aureus sensitive strain (5 strains) [2]: 500 µM | MIC, Staphylococcus epidremidis sensitive strain (5 strains) [3]: 0.5 | MIC, Staphylococcus aureus drug-resistant strain (6 strains) [4]: 0.5 | MIC, Staphylococcus epidermidis drug-resistant strain (5 strains) [5]: 500 µM | MIC, Pneumococcus drug-resistant strain (4 strains) [6]: 0.5

N#Cc1ccc(-c2ccc3c(c2)OC[C@H]2[C@@H](Cn4ccnn4)OC(=O)N32)cn1 [Compound 49, (3R,3aS)-3-((1H-1,2,3-triazol-1-yl)methyl)-7-(6-cyanopyridin-3-yl)-3a,4-dihydrobenzo[b]oxazole[3,4-d][1,4]oxazine-1(3H)-one]
MIC, Enterococcus (6 strains) [1]: 500 µM (≈ 187 µg/mL) | MIC, Staphylococcs aureus sensitive strain (5 strains) [2]: 500 µM (≈ 187 µg/mL) | MIC, Staphylococcus epidremidis sensitive strain (5 strains) [3]: 0.25 | MIC, Staphylococcus aureus drug-resistant strain (6 strains) [4]: 0.25 | MIC, Staphylococcus epidermidis drug-resistant strain (5 strains) [5]: 250 µM (≈ 93.6 µg/mL) | MIC, Pneumococcus drug-resistant strain (4 strains) [6]: 0.5

CC(=O)NC[C@@H]1OC(=O)N2c3ccc(-c4ccc(C#N)nc4)cc3OC[C@@H]12 [Compound 7, N-(((3S,3aS)-7-(6-cyanopyridin-3-yl)-1-oxo-1,3,3a,4-tetrahydrobenzo[b]oxazole-[3,4-d][1,4]oxazin-3-yl)methyl)acetamide]
metabolic properties ([8]; 15 mg/kg gavage and intravenous injection): good metabolic properties | AUC0-t [8, 9]: 57191 ng·h/mL and 61593 ng·h/mL and 79448 ng·h/mL | AUC0-∞ [8, 9]: 57255 ng·h/mL and 61983 ng·h/mL and 79622 ng·h/mL | CLz [8, 9]: 3.73 mL/min/kg and 4.37 mL/min/kg and 4.03 mL/min/kg and 3.13 mL/min/kg | Cmax [8, 9]: 3958 ng/mL and 4772 ng/mL and 6269 ng/mL | MRT [8, 9]: 8.65 h and 8.79 h and 9.09 h | Tmax [8, 9]: 2.0 h and 5.0 h | Vz [8, 9]: 1.81 L/kg and 1.79 L/kg and 2.22 L/kg and 1.44 L/kg | t1/2 [8, 9]: 4.74 h and 6.36 h and 5.31 h | CLz [8, 10]: 3.82 mL/min/kg | Vz [8, 10]: 1.82 L/kg | Tmax ([8]; intravenous injection 15 mg/kg, individual animals No. 5-6): 2.0 h | AUC0-t [8, 11]: 87218 ng·h/mL | AUC0-∞ [8, 11]: 87475 ng·h/mL | CLz [8, 11]: 3.28 mL/min/kg and 2.85 mL/min/kg | MRT [8, 11]: 8.77 h | Vz [8, 11]: 1.42 L/kg | t1/2 [8, 11]: 5.72 h | AUC0-∞ [8, 12]: 81844 ng·h/mL | CLz [8, 12]: 3.07 mL/min/kg | Tmax [8, 12]: 2.0 h | t1/2 [8, 12]: 5.58 h | AUC(0-inf) [8, 13]: 76200 ng·h/mL | half-life [8, 13]: 5.44 h | AUC0-t ([8]; male, SD, plasma, iv, 15 mg/kg, intravenous injection 15 mg/kg, individual animals No. 5-6, read-out: AUC0-t): 76100 ng·h/mL | Cmax ([8]; male, SD, plasma, iv, 15 mg/kg, intravenous injection 15 mg/kg, individual animals No. 5-6, read-out: Cmax): 7510 ng/mL | MRT ([8]; male, SD, plasma, iv, 15 mg/kg, intravenous injection 15 mg/kg, individual animals No. 5-6, read-out: MRT): 7.98 h | Vd ([8]; male, SD, plasma, iv, 15 mg/kg, intravenous injection 15 mg/kg, individual animals No. 5-6, read-out: Vz): 1.55 L/kg | AUC0-t ([8]; male, SD, plasma, iv, 15 mg/kg, intravenous injection 15 mg/kg, mean of 2 animals, read-out: AUC0-t): 81600 ng·h/mL | Cmax ([8]; male, SD, plasma, iv, 15 mg/kg, intravenous injection 15 mg/kg, mean of 2 animals, read-out: Cmax): 7510 ng/mL | MRT ([8]; male, SD, plasma, iv, 15 mg/kg, intravenous injection 15 mg/kg, mean of 2 animals, read-out: MRT): 8.37 h | Vd ([8]; male, SD, plasma, iv, 15 mg/kg, intravenous injection 15 mg/kg, mean of 2 animals, read-out: Vz): 1.48 L/kg | AUC(0-inf) [8, 14]: 67100 ng·h/mL | half-life [8, 14]: 5.6 h | AUC0-t ([8]; male, SD, plasma, po, 15 mg/kg, gavage 15 mg/kg, individual animals No. 1-4, read-out: AUC0-t): 66900 ng·h/mL | Cmax ([8]; male, SD, plasma, po, 15 mg/kg, gavage 15 mg/kg, individual animals No. 1-4, read-out: Cmax): 5450 ng/mL | MRT ([8]; male, SD, plasma, po, 15 mg/kg, gavage 15 mg/kg, individual animals No. 1-4, read-out: MRT): 7.96 h | AUC(0-inf) [8, 15]: 66500 ng·h/mL | half-life [8, 15]: 5.5 h | AUC0-t ([8]; male, SD, plasma, po, 15 mg/kg, gavage 15 mg/kg, mean of 4 animals, read-out: AUC0-t): 66300 ng·h/mL | Cmax ([8]; male, SD, plasma, po, 15 mg/kg, gavage 15 mg/kg, mean of 4 animals, read-out: Cmax): 5110 ng/mL | MRT ([8]; male, SD, plasma, po, 15 mg/kg, gavage 15 mg/kg, mean of 4 animals, read-out: MRT): 8.62 h | Tmax ([8]; male, SD, plasma, po, 15 mg/kg, gavage 15 mg/kg, mean of 4 animals, read-out: Tmax): 4 h | bioavailability ([8]; male, SD, plasma, po, gavage 15 mg/kg, calculated as AUC0-t, read-out: F (absolute bioavailability)): 81.2% | ED50 ([7]; MRSA): 5.53 mg/kg | ED50 ([7]; MRSA, ip): 5.92 mg/kg | in vivo activity compared with control drug LZ ([7]; mouse model infected with MRSA): significantly better than that of the control drug LZ

Reference: US8507481B2, “Benzoxazine oxazolidinone compounds, preparation methods and uses thereof” (Shanghai Institute of Materia Medica, Chinese Academy of …, priority 2010, dated 2013)
